The values below come from BindingDB's records for doi:10.1016/j.ejmech.2016.05.044 (Texas A&M University, 2016).

The assay can be described thus: Negative allosteric modulator activity at CB1 receptor (unknown origin) expressed in HEK293 cell membrane assessed as reduction in CP55,940-induced [35S]GTPgammaS binding by measuring EC50 of CP55,940 at 3.2 uM incubated for 60 mins by liquid scintillation counting analysis (Rvb = 4.7 nM).

Consider `CN(C)c1ccc(CCNC(=O)c2[nH]c3ccc(Cl)cc3c2CN=[N+]=[N-])cc1`, for which the EC50 worked out at 1.2 nM.
To `CCCCCCc1c(C(=O)NCCc2ccc(N=[N+]=[N-])cc2)[nH]c2ccc(Cl)cc12` belongs 2.1 nM; to `CCCCCc1c(C(=O)NCCc2ccc(C(=O)c3ccccc3)cc2)[nH]c2ccc(Cl)cc12`, 7.9 nM; to `CCc1c(C(=O)NCCc2ccc(C(=O)c3ccccc3)cc2)[nH]c2ccc(Cl)cc12`, 2.7 nM.

What is called EC50 is the concentration at which the effect is half-maximal.
